What was measured:
LEE011/Ribociclib = compound: CN(C)C(=O)c1cc2cnc(Nc3ccc(N4CCNCC4)cn3)nc2n1C1CCCC1 [LEE011/Ribociclib]
BSJ-03-123 = compound: CC(=O)c1c(C)c2cnc(Nc3ccc(N4CCN(CCOCCOCCOCCNC(=O)COc5cccc6c5C(=O)N(C5CCC(=O)NC5=O)C6=O)CC4)cn3)nc2n(C2CCCC2)c1=O [BSJ-03-123]
AZD7762 = compound: NC(=O)Nc1cc(-c2cccc(F)c2)sc1C(=O)N[C@H]1CCCNC1 [AZD7762]
Ceritinib/LDK378 = compound: Cc1cc(Nc2ncc(Cl)c(Nc3ccccc3S(=O)(=O)C(C)C)n2)c(OC(C)C)cc1C1CCNCC1 [Ceritinib/LDK378]
Buparlisib/NVP-BKM120 = compound: Nc1cc(C(F)(F)F)c(-c2cc(N3CCOCC3)nc(N3CCOCC3)n2)cn1 [Buparlisib/NVP-BKM120]
[1] = compound: CO[C@@H](C)Cn1c(=O)n(C)c2cnc3ccc(-c4cncc(C(C)(C)O)c4)cc3c21
Alpelisib/BYL719 = compound: Cc1nc(NC(=O)N2CCC[C@H]2C(N)=O)sc1-c1ccnc(C(C)(C)C(F)(F)F)c1 [Alpelisib/BYL719]
[2] = compound: CNc1nc(-c2ccc3c(N)n[nH]c3c2)cc(N2C[C@@H](C(=O)NC3CCCCC3)CC[C@H]2C)n1
Pictilisib/GDC0941 = compound: CS(=O)(=O)N1CCN(Cc2cc3nc(-c4cccc5[nH]ncc45)nc(N4CCOCC4)c3s2)CC1 [Pictilisib/GDC0941]
BVD523 = compound: CC(C)Nc1cc(-c2c[nH]c(C(=O)N[C@H](CO)c3cccc(Cl)c3)c2)c(Cl)cn1 [BVD523]
[3] = compound: Cc1nn(C)c(COc2ccc(N3CCN(S(=O)(=O)N(C)C)CC3)cc2)c1-c1cccc2c(CCCOc3cccc4ccccc34)c(C(=O)O)n(CCN3CCOCC3)c12
SHP099 = compound: CC1(CCN(CC1)C2=CN=C(C(=N2)N)C3=C(C(=CC=C3)Cl)Cl)N [SHP099]
Cediranib/AZD2171 = compound: COc1cc2c(Oc3ccc4[nH]c(C)cc4c3F)ncnc2cc1OCCCN1CCCC1 [Cediranib/AZD2171]
Volasertib/BI6727 = compound: CC[C@@H]1C(=O)N(C)c2cnc(Nc3ccc(C(=O)N[C@H]4CC[C@H](N5CCN(CC6CC6)CC5)CC4)cc3OC)nc2N1C(C)C [Volasertib/BI6727]
[4] = compound: CCc1cnn2c(NCc3ccc[n+]([O-])c3)cc(N3CCCC[C@H]3CCO)nc12
R0-3306 = compound: C1=CC2=C(C=CC(=C2)C=C3C(=O)NC(=NCC4=CC=CS4)S3)N=C1 [R0-3306]
Cabozantinib = compound: COc1cc2nccc(Oc3ccc(NC(=O)C4(C(=O)Nc5ccc(F)cc5)CC4)cc3)c2cc1OC [Cabozantinib]
[5] = compound: CCC1=CN=CN=C1N2CCN(CC2)CC3=NC4=C(N3)C=C(C=C4)C(F)(F)F
senexin b = compound: CN1CCN(C(=O)c2ccc3cc(CCNc4ncnc5ccc(C#N)cc45)ccc3c2)CC1 [senexin b]
Dasatinib = compound: Cc1nc(Nc2ncc(C(=O)Nc3c(C)cccc3Cl)s2)cc(N2CCN(CCO)CC2)n1 [Dasatinib]
Tivantinib/ARQ197 = compound: O=C1NC(=O)[C@@H](c2cn3c4c(cccc24)CCC3)[C@@H]1c1c[nH]c2ccccc12 [Tivantinib/ARQ197]
THZ1 = compound: CN(C)C/C=C/C(=O)Nc1ccc(C(=O)Nc2cccc(Nc3ncc(Cl)c(-c4c[nH]c5ccccc45)n3)c2)cc1 [THZ1]
Saracatinib/AZD0530 = compound: CN1CCN(CCOc2cc(OC3CCOCC3)c3c(Nc4c(Cl)ccc5c4OCO5)ncnc3c2)CC1 [Saracatinib/AZD0530]
Rucaparib = compound: CNCc1ccc(-c2[nH]c3cc(F)cc4c3c2CCNC4=O)cc1 [Rucaparib]
INK128/MLN0128 = compound: CC(C)n1nc(-c2ccc3oc(N)nc3c2)c2c(N)ncnc21 [INK128/MLN0128]
AZD2014 = compound: CNC(=O)c1cccc(-c2ccc3c(N4CCOC[C@@H]4C)nc(N4CCOC[C@@H]4C)nc3n2)c1 [AZD2014]
[6] = compound: CCCCOc1c(C(=O)c2c(F)cc(C)cc2F)c[nH]c2nncc1-2
[7] = compound: COc1ccc2c(c1)[C@]1(C[C@H]1c1ccc3c(/C=C/c4ccc(CN5C[C@@H](C)O[C@@H](C)C5)cc4)n[nH]c3c1)C(=O)N2
[8] = compound: CC(=O)c1c(C)c2cnc(Nc3ccc(N4CCNCC4)cn3)nc2n(C2CCCC2)c1=O
AZD1775 = compound: C=CCn1c(=O)c2cnc(Nc3ccc(N4CCN(C)CC4)cc3)nc2n1-c1cccc(C(C)(C)O)n1 [AZD1775]
Neratinib/HKI272 = compound: CCOc1cc2ncc(C#N)c(Nc3ccc(OCc4ccccn4)c(Cl)c3)c2cc1NC(=O)/C=C/CN(C)C [Neratinib/HKI272]
THZ-P1-2 = compound: CN(C)C/C=C/C(=O)NC1=CC=C(C=C1)C(=O)NC2=CC=CC(=C2)NC3=NC=NC(=C3)C4=CNC5=CC=CC=C54 [THZ-P1-2]
Torin2 = compound: C1=CC(=CC(=C1)N2C(=O)C=CC3=CN=C4C=CC(=CC4=C32)C5=CN=C(C=C5)N)C(F)(F)F [Torin2]
Vorinostat = compound: O=C(CCCCCCC(=O)Nc1ccccc1)NO [Vorinostat]
AZD5363 = compound: NC1(C(=O)N[C@@H](CCO)c2ccc(Cl)cc2)CCN(c2nc[nH]c3nccc2-3)CC1 [AZD5363]
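Note: breast cancer and non-malignant breast epithelial cell lines, Deep Dye Drop or Dye Drop imaging, nine half-log doses, GR normalized to time-zero plates and DMSO-only controls.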

| Cell Line | GR50, 72 h (LEE011/Ribociclib) [µM] | GR50, 72 h (BSJ-03-123) [µM] | GR50, 72 h (AZD7762) [µM] | GR50, 72 h (Ceritinib/LDK378) [µM] | GR50, 72 h (Buparlisib/NVP-BKM120) [µM] | GR50, 72 h [1] [µM] | GR50, 72 h (Alpelisib/BYL719) [µM] | GR50, 72 h [2] [µM] | GR50, 72 h (Pictilisib/GDC0941) [µM] | GR50, 72 h (BVD523) [µM] | GR50, 72 h [3] [µM] | GR50, 72 h (SHP099) [µM] | GR50, 72 h (Cediranib/AZD2171) [µM] | GR50, 72 h (Volasertib/BI6727) [µM] | GR50, 72 h [4] [µM] | GR50, 72 h (R0-3306) [µM] | GR50, 72 h (Cabozantinib) [µM] | GR50, 72 h [5] [µM] | GR50, 72 h (senexin b) [µM] | GR50, 72 h (Dasatinib) [µM] | GR50, 72 h (Tivantinib/ARQ197) [µM] | GR50, 72 h (THZ1) [µM] | GR50, 72 h (Saracatinib/AZD0530) [µM] | GR50, 72 h (Rucaparib) [µM] | GR50, 72 h (INK128/MLN0128) [µM] | GR50, 72 h (AZD2014) [µM] | GR50, 72 h [6] [µM] | GR50, 72 h [7] [µM] | GR50, 72 h [8] [µM] | GR50, 72 h (AZD1775) [µM] | GR50, 72 h (Neratinib/HKI272) [µM] | GR50, 72 h (THZ-P1-2) [µM] | GR50, 72 h (Torin2) [µM] | GR50, 72 h (Vorinostat) [µM] | GR50, 72 h (AZD5363) [µM] |
| --- | --- | --- | --- | --- | --- | --- | --- | --- | --- | --- | --- | --- | --- | --- | --- | --- | --- | --- | --- | --- | --- | --- | --- | --- | --- | --- | --- | --- | --- | --- | --- | --- | --- | --- | --- |
| MGH312 | > 10 | 4.41 | 0.202 | 1.23 | 0.347 | < 0.001 | 6.6 | 0.0356 | 0.0806 | > 10 | > 10 | > 10 | 3.88 | 0.00804 | 0.0108 | 5.42 | 6.89 | 4.84 | 0.511 | 0.00371 | 0.379 | 0.00839 | 0.133 | > 10 | 0.00245 | < 0.001 | 0.00785 | 0.00114 | > 3.16 | 1.27 | 0.168 | 4.45 | 0.00596 | 0.799 | < 0.001 |
| HCC1937 | > 10 | 9.94 | 0.17 | 3.53 | 1.45 | 0.139 | > 10 | > 10 | 2.42 | > 10 | > 10 | > 10 | 8.4 | 0.0119 | 0.0218 | 5.17 | > 10 | > 10 | 4.95 | 0.113 | 0.649 | 0.0648 | > 10 | > 10 | 0.0515 | 0.0304 | < 0.001 | 0.00432 | > 3.16 | 0.00892 | 1.46 | 4.05 | 0.0934 | 1.91 | > 10 |
| SUM229PE | > 10 | 1.64 | 0.0909 | 1.68 | 1.27 | 0.453 | > 10 | > 10 | 3.92 | 1.6 | > 10 | > 10 | 8.64 | 0.0135 | 0.0141 | 6.23 | 6.79 | > 10 | > 10 | 0.094 | 0.083 | 0.0185 | 5.44 | > 10 | 0.047 | 0.0116 | 0.0124 | 0.00229 | 0.956 | 0.00928 | 0.419 | 5.54 | 0.0523 | 3.48 | > 10 |
| MCF10A | > 10 | 1.09 | 1.81 | 2.99 | 1.47 | 0.163 | > 10 | > 10 | 1.88 | 1.28 | > 10 | > 10 | 9.75 | 0.0221 | 0.0162 | 5.9 | > 10 | > 10 | > 10 | 0.709 | 0.181 | 0.0723 | 4.83 | > 10 | 0.0242 | 0.473 | 0.504 | 0.00588 | 1.95 | 6.21 | 0.102 | 7 | 0.032 | 2.53 | > 10 |
| SUM52PE | > 10 | 3.42 | 0.0752 | > 10 | 0.738 | 0.0079 | 2.74 | 8.3 | 0.477 | 5.04 | 8.59 | > 10 | 0.17 | 0.0198 | 0.0196 | 5.05 | 0.736 | 8 | > 10 | 0.238 | 0.33 | 0.0156 | 9.64 | > 10 | 0.0172 | 0.0163 | 0.112 | 0.00559 | 0.564 | 4.37 | 3.11 | 6.06 | 0.0154 | 4.26 | 3.52 |
| MCF12A | > 10 | 5.35 | 0.129 | 7.62 | 2.84 | 0.167 | > 10 | > 10 | 6.67 | 5.73 | > 10 | > 10 | > 10 | 0.0519 | 0.0371 | 9.7 | > 10 | > 10 | > 10 | 0.209 | 0.291 | 0.15 | 9.02 | > 10 | 0.022 | 0.0768 | 7.57 | 0.0103 | > 3.16 | 1.92 | 0.422 | 8.04 | 0.0424 | 6.67 | > 10 |
| SUM159 | 9.31 | 1.94 | 0.834 | 2.1 | 2.21 | 0.00127 | > 10 | > 10 | 4.53 | 1.91 | > 10 | > 10 | > 10 | 0.0247 | 0.0169 | 7.13 | 7.15 | > 10 | > 10 | > 10 | 0.408 | 0.361 | > 10 | > 10 | 0.0561 | 0.176 | 0.159 | 0.00426 | 1.73 | 2.05 | > 3.16 | 6.79 | 0.0417 | 3.28 | 9.8 |

— the supplement of paper PMC9663587
